Patent US20260207578A1, “COMPOUND BASED ON SULFUR/OXYGEN SUBSTITUTED GLUTARIMIDE-BASED ISOINDOLINONE SKELETON AND USE THEREOF” (Gluetacs Therapeutics (Shanghai) Co., LTD., priority 2022, published 2026)

Experiments:
MV-4-11 = test: Half inhibitory concentration (IC50) against tumor cells, Cell Counting Kit-8; assay type: cell-based; conditions: Homo sapiens, MV4-11, CCK-8, 96 h treatment, read-out: inhibitory activity (IC50, nM) against tumor cells proliferation
Description: (§1) The tumor cells used herein were cultured in a cell culture medium listed in table A at 37° C. in an incubator with 5% CO2.
(§2) After the cells were treated with the compounds of the present disclosure for a period of time, the cell viability detection reagent was added to the culture medium for cell viability assessment according to the instructions provided with the CCK-8 kit. […] The growth inhibition of the compounds of the present disclosure on cells was plotted by Prism Graphpad software, and the IC50 values of the compounds of the present disclosure were calculated therefrom.

GSPT1 = biological target: T1, GSPT1 (Homo sapiens, UniProt P15170+Q96SW2); test: Western-blot assay, substrate protein in hPBMCs; assay type: cell-based; conditions: hPBMC cells, 24 hours, tested at 50 nM and 500 nM, table does not say which
T1 construct: endogenous in cells; host or cells: human PBMCs (Milecell Biotechnologies)
Procedure, shortened: (§3)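 Protein levels read by Western blot of lysates from human PBMCs (1×10^6 cells/mL) treated 24 h. Percent remaining is target band over loading-control band, normalised to DMSO-treated cells; DC50 is the concentration halving DMSO-control band intensity, estimated by curve fit.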

Wee1 = biological target: T2, Wee1 (Homo sapiens, UniProt P30291+Q96SW2); test: Western-blot assay, substrate protein in hPBMCs; assay type: cell-based; conditions: hPBMC cells, 24 hours, tested at 50 nM and 500 nM, table does not say which
T2 construct: endogenous in cells; host or cells: human PBMCs (Milecell Biotechnologies)
Procedure, shortened: as §3

IKZF2 = biological target: T3, IKZF2 (Homo sapiens, UniProt Q96SW2+Q9UKS7); test: Western-blot assay, substrate protein in hPBMCs; assay type: cell-based; conditions: hPBMC cells, 24 hours, tested at 50 nM and 500 nM, table does not say which
T3 construct: endogenous in cells; host or cells: human PBMCs (Milecell Biotechnologies)
Procedure, shortened: as §3

CK1α = biological target: T4, CK1α (Homo sapiens, UniProt P48729+Q96SW2); test: Western-blot assay, substrate protein in hPBMCs; assay type: cell-based; conditions: hPBMC cells, 24 hours, tested at 50 nM and 500 nM, table does not say which
T4 construct: endogenous in cells; host or cells: human PBMCs (Milecell Biotechnologies)
Procedure, shortened: as §3

IKZF3 = biological target: T5, IKZF3 (Homo sapiens, UniProt Q96SW2+Q9UKT9); test: Western-blot assay, substrate protein in hPBMCs; assay type: cell-based; conditions: hPBMC cells, 24 hours, tested at 50 nM and 500 nM, table does not say which
T5 construct: endogenous in cells; host or cells: human PBMCs (Milecell Biotechnologies)
Procedure, shortened: (§4)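 hPBMCs (1×10^6 cells/mL) exposed 24 h to compound at 50 nM and 500 nM, lysed, and probed by Western blot. Band grayscale normalized to internal control gives % protein remaining versus DMSO; DC50 from concentration-response fit at half DMSO band intensity.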

IKZF1 = biological target: T6, IKZF1 (Homo sapiens, UniProt Q13422+Q96SW2); test: Western-blot assay, substrate protein in hPBMCs; assay type: cell-based; conditions: hPBMC cells, 24 hours, tested at 50 nM and 500 nM, table does not say which
T6 construct: endogenous in cells; host or cells: human PBMCs (Milecell Biotechnologies)
Procedure, shortened: as §4

[1] = biological target: T7, human Cereblon WT GST-tagged protein (Homo sapiens, UniProt Q96SW2); test: CRBN-binding affinity, HTRF (CEREBLON BINDING kit); conditions: displacement of Thalidomide-Re reagent, 3 hours at room temperature
T7 construct: purchased CISBIO 64BDCRBNPEH
Procedure, shortened: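 HTRF competition format: compound, GST-tagged wild-type human Cereblon, Thalidomide-Re tracer and GST Eu antibody were combined in PROTAC binding buffer. Binding was derived from emission at 620 nm relative to blank and solvent control wells.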

CAL-62 = test: Half inhibitory concentration (IC50) against tumor cells, Cell Counting Kit-8; assay type: cell-based; conditions: Homo sapiens, CCK-8, 96 h treatment, read-out: inhibitory activity (IC50, nM) against tumor cells proliferation
Description: as §1, §2

CCRF-CEM = test: as above; assay type: cell-based; conditions: Homo sapiens, CCK-8, 96 h treatment, read-out: inhibitory activity (IC50, nM) against tumor cells proliferation
Description: as §1, §2

Kasumi-1 = test: as above; assay type: cell-based; conditions: Homo sapiens, CCK-8, 96 h treatment, read-out: inhibitory activity (IC50, nM) against tumor cells proliferation
Description: as §1, §2

THP-1 = test: as above; assay type: cell-based; conditions: Homo sapiens, CCK-8, 96 h treatment, read-out: inhibitory activity (IC50, nM) against tumor cells proliferation
Description: as §1, §2

MM.1S = test: as above; assay type: cell-based; conditions: Homo sapiens, MM1.S, CCK-8, 96 h treatment, read-out: inhibitory activity (IC50, nM) against tumor cells proliferation
Description: as §1, §2

T1 sequence (P15170 whole entry): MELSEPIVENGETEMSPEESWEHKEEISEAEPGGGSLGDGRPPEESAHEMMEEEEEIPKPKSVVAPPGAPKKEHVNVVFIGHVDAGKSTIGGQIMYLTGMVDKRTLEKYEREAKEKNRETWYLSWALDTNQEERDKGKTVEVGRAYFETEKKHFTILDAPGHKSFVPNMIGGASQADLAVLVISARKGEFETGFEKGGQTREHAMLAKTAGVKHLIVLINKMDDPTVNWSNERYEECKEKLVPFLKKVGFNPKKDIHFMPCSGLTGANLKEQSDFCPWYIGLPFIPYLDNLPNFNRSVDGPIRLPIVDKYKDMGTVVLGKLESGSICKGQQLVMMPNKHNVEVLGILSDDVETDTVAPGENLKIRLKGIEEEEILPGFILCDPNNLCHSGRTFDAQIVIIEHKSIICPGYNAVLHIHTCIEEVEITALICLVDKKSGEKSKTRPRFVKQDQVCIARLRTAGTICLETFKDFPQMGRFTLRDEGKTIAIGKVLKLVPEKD
T1 sequence (Q96SW2 whole entry): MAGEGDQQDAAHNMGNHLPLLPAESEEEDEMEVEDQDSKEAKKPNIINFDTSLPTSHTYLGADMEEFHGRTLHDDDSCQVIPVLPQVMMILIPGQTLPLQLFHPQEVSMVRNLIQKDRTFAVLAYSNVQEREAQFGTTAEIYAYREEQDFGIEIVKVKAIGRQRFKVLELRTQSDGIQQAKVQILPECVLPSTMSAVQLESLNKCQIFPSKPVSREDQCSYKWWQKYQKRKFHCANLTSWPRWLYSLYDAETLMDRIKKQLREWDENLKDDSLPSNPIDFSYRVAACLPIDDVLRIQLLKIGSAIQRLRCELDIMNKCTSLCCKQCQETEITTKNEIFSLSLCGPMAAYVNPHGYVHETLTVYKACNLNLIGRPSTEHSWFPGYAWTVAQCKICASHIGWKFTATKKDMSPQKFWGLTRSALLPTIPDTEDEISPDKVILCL
T1 sequence (Q16531 whole entry partner): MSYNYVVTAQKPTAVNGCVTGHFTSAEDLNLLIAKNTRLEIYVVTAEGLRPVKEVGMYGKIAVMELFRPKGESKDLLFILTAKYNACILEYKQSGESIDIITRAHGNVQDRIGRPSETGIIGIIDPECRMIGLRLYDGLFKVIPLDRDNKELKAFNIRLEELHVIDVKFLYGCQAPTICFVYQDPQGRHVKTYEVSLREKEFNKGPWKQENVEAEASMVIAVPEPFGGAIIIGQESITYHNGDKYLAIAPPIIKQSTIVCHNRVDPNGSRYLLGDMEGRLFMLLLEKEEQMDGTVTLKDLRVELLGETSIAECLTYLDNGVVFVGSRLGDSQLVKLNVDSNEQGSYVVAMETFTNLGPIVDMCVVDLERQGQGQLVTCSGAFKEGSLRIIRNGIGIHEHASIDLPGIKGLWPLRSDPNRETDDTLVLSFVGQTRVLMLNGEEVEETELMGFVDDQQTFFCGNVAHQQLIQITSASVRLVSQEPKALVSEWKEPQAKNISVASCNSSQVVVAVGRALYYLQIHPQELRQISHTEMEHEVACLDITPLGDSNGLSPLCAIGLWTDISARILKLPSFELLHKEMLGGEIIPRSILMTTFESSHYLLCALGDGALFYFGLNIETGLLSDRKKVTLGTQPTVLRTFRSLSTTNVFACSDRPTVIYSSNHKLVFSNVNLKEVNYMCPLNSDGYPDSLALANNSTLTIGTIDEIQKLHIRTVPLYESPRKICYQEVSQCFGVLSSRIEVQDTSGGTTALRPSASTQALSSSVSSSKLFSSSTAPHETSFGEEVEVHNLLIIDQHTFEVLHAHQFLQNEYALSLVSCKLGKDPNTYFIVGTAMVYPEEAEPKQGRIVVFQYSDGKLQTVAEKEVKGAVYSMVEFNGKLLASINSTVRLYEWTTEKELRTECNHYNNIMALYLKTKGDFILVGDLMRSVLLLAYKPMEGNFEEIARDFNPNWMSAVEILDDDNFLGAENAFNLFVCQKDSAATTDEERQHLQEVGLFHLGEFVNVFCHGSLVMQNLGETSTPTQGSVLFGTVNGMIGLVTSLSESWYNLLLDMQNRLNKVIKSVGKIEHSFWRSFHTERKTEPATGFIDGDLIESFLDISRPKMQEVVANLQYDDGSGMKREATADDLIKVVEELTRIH
T4 sequence (P48729 whole entry): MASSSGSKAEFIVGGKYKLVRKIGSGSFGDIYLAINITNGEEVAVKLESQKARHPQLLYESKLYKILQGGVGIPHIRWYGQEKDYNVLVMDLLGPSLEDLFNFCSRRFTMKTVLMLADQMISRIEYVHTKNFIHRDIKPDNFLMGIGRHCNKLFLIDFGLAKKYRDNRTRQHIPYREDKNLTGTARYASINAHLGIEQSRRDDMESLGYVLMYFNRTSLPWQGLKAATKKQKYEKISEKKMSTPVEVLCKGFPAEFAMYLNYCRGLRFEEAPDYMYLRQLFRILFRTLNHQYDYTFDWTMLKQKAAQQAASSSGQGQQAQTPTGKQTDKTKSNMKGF
T4 sequence (Q96SW2 whole entry): as the sequence (Q96SW2 whole entry) above
T4 sequence (Q16531 whole entry partner): as the sequence (Q16531 whole entry partner) above
T3 sequence (Q9UKS7 whole entry): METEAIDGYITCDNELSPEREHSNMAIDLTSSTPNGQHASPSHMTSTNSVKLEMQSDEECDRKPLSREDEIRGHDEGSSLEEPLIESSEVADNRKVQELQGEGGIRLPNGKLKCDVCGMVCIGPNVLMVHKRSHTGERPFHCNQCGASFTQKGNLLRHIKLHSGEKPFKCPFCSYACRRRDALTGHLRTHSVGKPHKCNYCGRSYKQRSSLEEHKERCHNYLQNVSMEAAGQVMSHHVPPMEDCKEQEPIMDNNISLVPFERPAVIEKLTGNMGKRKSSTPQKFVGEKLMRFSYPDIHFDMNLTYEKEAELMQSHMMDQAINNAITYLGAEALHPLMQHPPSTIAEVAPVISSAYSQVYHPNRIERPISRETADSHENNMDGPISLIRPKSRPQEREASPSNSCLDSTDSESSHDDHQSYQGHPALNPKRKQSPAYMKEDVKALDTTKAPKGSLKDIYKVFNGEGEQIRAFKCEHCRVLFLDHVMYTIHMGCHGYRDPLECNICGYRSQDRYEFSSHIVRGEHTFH
T3 sequence (Q96SW2 whole entry): as the sequence (Q96SW2 whole entry) above
T3 sequence (Q16531 whole entry partner): as the sequence (Q16531 whole entry partner) above
T7 sequence (Q96SW2 whole entry): as the sequence (Q96SW2 whole entry) above
T6 sequence (Q13422 whole entry): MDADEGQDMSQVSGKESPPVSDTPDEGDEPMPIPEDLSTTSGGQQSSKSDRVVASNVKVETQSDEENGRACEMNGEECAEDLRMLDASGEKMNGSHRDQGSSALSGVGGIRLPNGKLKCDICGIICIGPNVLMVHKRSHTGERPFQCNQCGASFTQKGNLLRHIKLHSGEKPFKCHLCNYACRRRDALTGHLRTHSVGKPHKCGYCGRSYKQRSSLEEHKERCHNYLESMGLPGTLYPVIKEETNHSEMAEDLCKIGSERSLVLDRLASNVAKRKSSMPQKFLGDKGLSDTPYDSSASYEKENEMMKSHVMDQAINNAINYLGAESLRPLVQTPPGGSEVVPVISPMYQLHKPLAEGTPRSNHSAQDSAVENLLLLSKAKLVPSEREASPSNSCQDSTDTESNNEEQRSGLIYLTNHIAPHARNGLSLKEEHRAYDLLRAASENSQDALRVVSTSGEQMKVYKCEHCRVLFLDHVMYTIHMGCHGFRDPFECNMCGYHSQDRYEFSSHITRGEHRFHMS
T6 sequence (Q96SW2 whole entry): as the sequence (Q96SW2 whole entry) above
T6 sequence (Q16531 whole entry partner): as the sequence (Q16531 whole entry partner) above
T5 sequence (Q9UKT9 whole entry): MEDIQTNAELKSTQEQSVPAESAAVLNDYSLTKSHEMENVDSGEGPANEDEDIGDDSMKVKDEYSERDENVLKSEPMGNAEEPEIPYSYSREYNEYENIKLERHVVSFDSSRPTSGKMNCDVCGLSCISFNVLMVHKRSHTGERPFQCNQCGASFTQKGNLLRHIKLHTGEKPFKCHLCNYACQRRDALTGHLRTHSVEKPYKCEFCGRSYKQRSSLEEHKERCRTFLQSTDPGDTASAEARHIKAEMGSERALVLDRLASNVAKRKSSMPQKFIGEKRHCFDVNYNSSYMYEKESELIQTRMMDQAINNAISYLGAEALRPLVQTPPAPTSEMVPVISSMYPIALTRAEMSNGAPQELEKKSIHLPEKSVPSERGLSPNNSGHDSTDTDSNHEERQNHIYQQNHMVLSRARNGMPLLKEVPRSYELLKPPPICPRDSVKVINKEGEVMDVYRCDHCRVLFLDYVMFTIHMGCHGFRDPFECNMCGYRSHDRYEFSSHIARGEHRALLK
T5 sequence (Q96SW2 whole entry): as the sequence (Q96SW2 whole entry) above
T5 sequence (Q16531 whole entry partner): as the sequence (Q16531 whole entry partner) above

Row | SMILES | IC50 (MV-4-11) | substrate protein remaining % (GSPT1) | substrate protein remaining % (Wee1) | substrate protein remaining % (IKZF2) | substrate protein remaining % (CK1α) | substrate protein remaining % (IKZF3) | substrate protein remaining % (IKZF1) | IC50 [1] | IC50 (CAL-62) | IC50 (CCRF-CEM) | IC50 (Kasumi-1) | IC50 (THP-1) | IC50 (MM.1S)
1 | CC1(C)CCC(CN2CCC3(CC2)CC(Sc2ccc4c(c2)CN(C2CCC(=O)NC2=O)C4=O)C3)=C(c2ccc(Cl)cc2)C1 (centres unmarked) [GT-06873, 3-(5-((7-((4′-chloro-5,5-dimethyl-3,4,5,6-tetrahydro-[1,1′-biphenyl]-2-yl)methyl)-7-azaspiro[3.5]nonan-2-yl)thio)-1-oxoisoindolin-2-yl)piperidine-2,6-dione] | 10 to 50 nM | A (0%≤ substrate protein remaining % ≤80%) | A (0%≤ substrate protein remaining % ≤80%) | A (0%≤ substrate protein remaining % ≤80%) | A (0%≤ substrate protein remaining % ≤80%) | A (0%≤ substrate protein remaining % ≤80%) | A (0%≤ substrate protein remaining % ≤80%) | 1000 to 1900 nM | – | – | – | – | –
2 | O=C1CCC(N2Cc3cc(SC4CCN(C(=O)c5ccccc5-c5ccc(Cl)cc5)CC4(F)F)ccc3C2=O)C(=O)N1 (centres unmarked) [GT-06925, 3-(5-((1-(4′-chloro-[1,1′-biphenyl]-2-carbonyl)-3,3-difluoropiperidin-4-yl)thio)-1-oxoisoindolin-2-yl)piperidine-2,6-dione] | 1 to 10 nM | A (0%≤ substrate protein remaining % ≤80%) | A (0%≤ substrate protein remaining % ≤80%) | A (0%≤ substrate protein remaining % ≤80%) | A (0%≤ substrate protein remaining % ≤80%) | A (0%≤ substrate protein remaining % ≤80%) | A (0%≤ substrate protein remaining % ≤80%) | 500 to 1000 nM | – | – | – | – | –
3 | CC1(C)CCC(CN2CCC(Sc3ccc4c(c3)CN(C3CCC(=O)NC3=O)C4=O)CC2)=C(c2ccc(Cl)cc2)C1 (centres unmarked) [GT-03462, 3-(5-((1-((4′-chloro-5,5-dimethyl-3,4,5,6-tetrahydro-[1,1′-biphenyl]-2-yl)methyl)piperidin-4-yl)thio)-1-oxoisoindolin-2-yl)piperidine-2,6-dione] | – | A (0%≤ substrate protein remaining % ≤80%) | A (0%≤ substrate protein remaining % ≤80%) | – | – | – | – | 500 to 1000 nM | 100 to 500 nM | 500 to 1000 nM | – | – | –
4 | O=C1CCC(N2Cc3cc(SC4CN(C(c5ccccc5F)c5ccccc5F)C4)ccc3C2=O)C(=O)N1 (centres unmarked) [GT-06758, 3-(5-((1-(bis(2-fluorophenyl)methyl)azetidin-3-yl)thio)-1-oxoisoindolin-2-yl)piperidine-2,6-dione] | 50 to 100 nM | A (0%≤ substrate protein remaining % ≤80%) | – | A (0%≤ substrate protein remaining % ≤80%) | – | – | A (0%≤ substrate protein remaining % ≤80%) | < 500 nM | – | 50 to 100 nM | 100 to 500 nM | – | –
5 | O=C1CCC(N2Cc3cc(SC4CN(C(=O)c5ccccc5-c5ccc(Cl)cc5)C4)ccc3C2=O)C(=O)N1 (centres unmarked) [GT-03892, 3-(5-((1-(4′-chloro-[1,1′-biphenyl]-2-carbonyl)azetidin-3-yl)thio)-1-oxoisoindolin-2-yl)piperidine-2,6-dione] | – | A (0%≤ substrate protein remaining % ≤80%) | A (0%≤ substrate protein remaining % ≤80%) | A (0%≤ substrate protein remaining % ≤80%) | – | A (0%≤ substrate protein remaining % ≤80%) | A (0%≤ substrate protein remaining % ≤80%) | < 500 nM | 10 to 50 nM | 10 to 50 nM | – | 100 to 500 nM | –
6 | O=C1CCC(N2Cc3cc(SC4CCN(Cc5ccccc5-c5ccc(Cl)cc5)CC4(F)F)ccc3C2=O)C(=O)N1 (centres unmarked) [GT-06924, 3-(5-((1-((4′-chloro-[1,1′-biphenyl]-2-yl)methyl)-3,3-difluoropiperidin-4-yl)thio)-1-oxoisoindolin-2-yl)piperidine-2,6-dione] | 100 to 500 nM | A (0%≤ substrate protein remaining % ≤80%) | – | – | A (0%≤ substrate protein remaining % ≤80%) | – | A (0%≤ substrate protein remaining % ≤80%) | – | – | 500 to 1000 nM | – | – | –
7 | CC1(C)CCC(CN2CCC(Sc3ccc4c(c3)CN(C3CCC(=O)NC3=O)C4=O)C2)=C(c2ccc(Cl)cc2)C1 (centres unmarked) [GT-04245, 3-(5-((1-((4′-chloro-5,5-dimethyl-3,4,5,6-tetrahydro-[1,1′-biphenyl]-2-yl)methyl)pyrrolidin-3-yl)thio)-1-oxoisoindolin-2-yl)piperidine-2,6-dione] | – | A (0%≤ substrate protein remaining % ≤80%) | – | A (0%≤ substrate protein remaining % ≤80%) | – | – | – | < 500 nM | – | – | – | 500 to 1000 nM | –
8 | O=C1CCC(N2Cc3cc(OC4CC5(CCN(C(c6ccccc6)c6ccccc6)CC5)C4)ccc3C2=O)C(=O)N1 (centres unmarked) [GT-06956, 3-(5-((7-benzhydryl-7-azaspiro[3.5]nonan-2-yl)oxy)-1-oxoisoindolin-2-yl)piperidine-2,6-dione] | 500 to 1000 nM | – | A (0%≤ substrate protein remaining % ≤80%) | A (0%≤ substrate protein remaining % ≤80%) | A (0%≤ substrate protein remaining % ≤80%) | A (0%≤ substrate protein remaining % ≤80%) | A (0%≤ substrate protein remaining % ≤80%) | < 500 nM | – | – | – | – | –
9 | CC1(C)CCC(CN2CCC(Oc3ccc4c(c3)CN(C3CCC(=O)NC3=O)C4=O)C2)=C(c2ccc(Cl)cc2)C1 (centres unmarked) [GT-06815, 3-(5-((1-((4′-chloro-5,5-dimethyl-3,4,5,6-tetrahydro-[1,1′-biphenyl]-2-yl)methyl)pyrrolidin-3-yl)oxy)-1-oxoisoindolin-2-yl)piperidine-2,6-dione] | 500 to 1000 nM | A (0%≤ substrate protein remaining % ≤80%) | A (0%≤ substrate protein remaining % ≤80%) | A (0%≤ substrate protein remaining % ≤80%) | A (0%≤ substrate protein remaining % ≤80%) | A (0%≤ substrate protein remaining % ≤80%) | A (0%≤ substrate protein remaining % ≤80%) | 1000 to 1900 nM | – | – | – | – | –
10 | O=C1CCC(N2Cc3cc(SC4CCN(C(c5ccccc5)c5ccccc5)CC4(F)F)ccc3C2=O)C(=O)N1 (centres unmarked) [GT-06926, 3-(5-((1-benzhydryl-3,3-difluoropiperidin-4-yl)thio)-1-oxoisoindolin-2-yl)piperidine-2,6-dione] | 10 to 50 nM | A (0%≤ substrate protein remaining % ≤80%) | A (0%≤ substrate protein remaining % ≤80%) | A (0%≤ substrate protein remaining % ≤80%) | A (0%≤ substrate protein remaining % ≤80%) | A (0%≤ substrate protein remaining % ≤80%) | A (0%≤ substrate protein remaining % ≤80%) | 1000 to 1900 nM | – | 50 to 100 nM | 100 to 500 nM | – | –
11 | O=C1CCC(N2Cc3cc(OC4CCN(C(=O)c5ccccc5-c5ccc(Cl)cc5)CC4)ccc3C2=O)C(=O)N1 (centres unmarked) [GT-06204, 3-(5-((1-(4′-chloro-[1,1′-biphenyl]-2-carbonyl)piperidin-4-yl)oxy)-1-oxoisoindolin-2-yl)piperidine-2,6-dione] | – | A (0%≤ substrate protein remaining % ≤80%) | – | A (0%≤ substrate protein remaining % ≤80%) | A (0%≤ substrate protein remaining % ≤80%) | A (0%≤ substrate protein remaining % ≤80%) | – | < 500 nM | – | – | – | – | 10 to 50 nM
